“Also recorded” adds a separate entry of the source. Like-named read-outs stand apart in the source and are kept apart here.
Key:
[1] = biological target: T1, Electrical (Torpedo californica) AChE (type VI-S) (Electrophorus electricus, UniProt O42275); assay: biochemical; assay type: biochemical
T1 construct: purchased Sigma-Aldrich (Steinheim, Germany) type VI-S
Procedure: (§1) Fluka provided potassium hydroxide, sodium hydrogen carbonate, potassium dihydrogen phosphate, and dipotassium hydrogen phosphate. Sigma-Aldrich (Steinheim, Germany) provided BuChE (E.C.3.1.1.8, from equine serum), Electrical ([…]) AChE (type VI-S), acetylthiocholine iodide, 5,5⸍-dithiobis [2-nitrobenzoic acid]
(§2) In order to set the derivatives’ stock solutions, they were dissolved in the dimethyl sulfoxide (DMSO). Then, we diluted them in the absolute ethanol for obtaining 3 varying concentrations for assay. The experiments were done in triplicate for each concentration. The assay solution included […], […] of phosphate buffer (0.1M, pH = 8), […] of 5 IU/mL butryl cholinesterase solution, and […] of inhibitor. Afterwards, the product was pre-incubated at 25 ᵒC for 10 min. Then, […] of butyrylthiocholine iodide was added as the substrate to the 24 wells for starting the reaction. […] For justifying non-enzymatic reaction, we conducted assays with a blank having all components except ButChE.
Moreover, AChE took the same assay for obtaining the derivatives’ anti-AChE activity.

[2] = biological target: T2, BuChE (E.C.3.1.1.8, from equine serum) (Equus caballus, UniProt P81908); assay: biochemical; assay type: biochemical
T2 construct: BuChE (E.C.3.1.1.8, from equine serum); purchased Sigma-Aldrich (Steinheim, Germany); host or cells: equine serum
Procedure: as §1
as §2, with “ButChE. […]” for “ButChE.”

[3] = Ellman's method, average ±SD, triplicate, read-out: AChE Inhibition [IC50 (μM)]
[4] = Ellman's method, average ±SD, triplicate, read-out: BuChE Inhibition [IC50 (μM)]
[5] = read-out: AChE Inhibition [IC50 (μM)]
[6] = read-out: BuChE Inhibition [IC50 (μM)]

T2 sequence (P81908 whole entry): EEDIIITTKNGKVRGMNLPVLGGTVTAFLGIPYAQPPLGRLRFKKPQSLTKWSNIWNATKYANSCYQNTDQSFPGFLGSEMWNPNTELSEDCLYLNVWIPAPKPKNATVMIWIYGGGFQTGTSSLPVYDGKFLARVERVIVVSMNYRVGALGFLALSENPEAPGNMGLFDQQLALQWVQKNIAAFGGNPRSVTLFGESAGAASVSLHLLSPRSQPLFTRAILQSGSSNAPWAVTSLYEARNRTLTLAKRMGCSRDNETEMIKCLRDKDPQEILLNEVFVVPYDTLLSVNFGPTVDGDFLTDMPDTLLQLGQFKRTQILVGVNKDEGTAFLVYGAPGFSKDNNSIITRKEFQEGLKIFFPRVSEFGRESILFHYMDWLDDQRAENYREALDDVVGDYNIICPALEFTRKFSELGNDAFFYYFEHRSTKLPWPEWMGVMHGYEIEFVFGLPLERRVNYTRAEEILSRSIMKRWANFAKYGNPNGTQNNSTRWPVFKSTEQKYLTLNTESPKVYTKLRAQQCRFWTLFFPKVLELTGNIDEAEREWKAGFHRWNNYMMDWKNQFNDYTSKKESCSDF
T1 sequence (O42275 24-633): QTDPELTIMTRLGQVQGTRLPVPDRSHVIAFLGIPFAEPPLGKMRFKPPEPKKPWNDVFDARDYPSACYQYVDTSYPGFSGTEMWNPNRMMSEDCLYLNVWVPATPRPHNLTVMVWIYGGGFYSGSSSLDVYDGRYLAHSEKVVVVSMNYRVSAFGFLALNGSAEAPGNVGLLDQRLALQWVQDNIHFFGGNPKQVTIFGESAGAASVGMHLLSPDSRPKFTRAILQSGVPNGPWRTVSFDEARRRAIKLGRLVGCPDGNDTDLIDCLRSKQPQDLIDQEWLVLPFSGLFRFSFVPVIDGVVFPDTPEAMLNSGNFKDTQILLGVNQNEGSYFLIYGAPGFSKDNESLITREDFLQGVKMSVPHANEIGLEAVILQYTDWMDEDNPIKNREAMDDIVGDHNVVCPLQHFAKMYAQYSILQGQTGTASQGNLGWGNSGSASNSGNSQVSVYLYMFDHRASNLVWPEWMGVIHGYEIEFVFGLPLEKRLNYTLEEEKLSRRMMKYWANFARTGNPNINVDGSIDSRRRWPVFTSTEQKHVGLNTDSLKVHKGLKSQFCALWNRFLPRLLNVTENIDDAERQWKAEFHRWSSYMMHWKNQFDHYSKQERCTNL

O=c1c2ccccc2ncn1Cc1ccc[n+](Cc2cccc(Br)c2)c1 [BOP-1, 1-(3-Bromobenzyl)-3-((4-oxoquinazolin-3(4H)-yl)methyl) pyridin-1-ium bromide]
IC50 [1, 3]: 5.9 ± 0.07 µM
IC50 [2]: 6.76 ± 0.04 µM

O=c1c2ccccc2ncn1Cc1ccc[n+](Cc2ccc(Cl)cc2)c1 [BOP-2, 1-(4-Chlorobenzyl)-3-((4-oxoquinazolin-3(4H)-yl)methyl) pyridin-1-ium chloride]
IC50 [1, 3]: 47.1 ± 0.48 µM
IC50 [2, 4]: 29 ± 0.43 µM

O=c1c2ccccc2ncn1Cc1ccc[n+](Cc2ccc(F)cc2)c1 [BOP-3, 1-(4-Flourobenzyl)-3-((4-oxoquinazolin-3(4H)-yl)methyl) pyridin-1-ium chloride]
IC50 [1, 5]: > 100 µM
IC50 [2, 6]: 70.43 ± 0.41 µM

N#Cc1ccc(C[n+]2cccc(Cn3cnc4ccccc4c3=O)c2)cc1 [BOP-4, 1-(4-Cyanobenzyl)-3-((4-oxoquinazolin-3(4H)-yl)methyl) pyridin-1-ium bromide]
IC50 [1, 3]: > 100 µM
IC50 [2, 4]: > 100 µM

O=c1c2ccccc2ncn1Cc1ccc[n+](Cc2ccccc2)c1 [BOP-5, 1-Benzyl-3-((4-oxoquinazolin-3(4H)-yl)methyl) pyridin-1-ium bromide]
IC50 [1, 3]: 41.2 ± 0.62 µM
IC50 [2, 4]: 12.63 ± 0.11 µM

COc1cc2ncn(Cc3ccc[n+](Cc4cccc(Br)c4)c3)c(=O)c2cc1OC [BOP-6, 1-(3-Bromobenzyl)-3-((6,7-dimethoxy-4-oxoquinazolin-3(4H)-yl)methyl) pyridin-1-ium bromide]
IC50 [1, 3]: 6.77 ± 0.24 µM
IC50 [2, 4]: 8.77 ± 0.11 µM

COc1cc2ncn(Cc3ccc[n+](Cc4ccc(F)cc4)c3)c(=O)c2cc1OC [BOP-7, 1-(4-Flourobenzyl)-3-((6,7-dimethoxy-4-oxoquinazolin-3(4H)-yl)methyl) pyridin-1-ium chloride]
IC50 [1, 5]: 21.92 ± 0.2 µM
IC50 [2, 6]: > 100 µM

COc1cc2ncn(Cc3ccc[n+](Cc4ccc(Cl)cc4)c3)c(=O)c2cc1OC.[Cl-] [BOP-8, 1-(4-Chlorobenzyl)-3-((6,7-dimethoxy-4-oxoquinazolin-3(4H)-yl)methyl) pyridin-1-ium chloride]
IC50 [1]: 1.11 ± 0.09 µM
BuChE inhibition (result in words) ([2]; Ellman's method): no inhibitory activity; also recorded: no inhibition
IC50 [2, 4]: > 100 µM

COc1cc2ncn(Cc3ccc[n+](Cc4ccc(C#N)cc4)c3)c(=O)c2cc1OC [BOP-9, 1-(4-Cyanobenzyl)-3-((6,7-dimethoxy-4-oxoquinazolin-3(4H)-yl)methyl) pyridin-1-ium bromide]
IC50 [1, 3]: > 100 µM
IC50 [2, 4]: > 100 µM

COc1cc2ncn(Cc3ccc[n+](Cc4ccccc4)c3)c(=O)c2cc1OC [BOP-10, 1-Benzyl-3-((6,7-dimethoxy-4-oxoquinazolin-3(4H)-yl)methyl) pyridin-1-ium bromide]
IC50 [1, 3]: 10.1 ± 0.28 µM
IC50 [2, 4]: 18.8 ± 0.34 µM

From PMC8045006 (Heliyon, 2021)
